# According to US7951382B2, “Methods for treatment of type 2 diabetes” (American Type Culture Collection, priority 2006, dated 2011):
# Entries after “also recorded” stand apart in the source; their conditions may differ.
# Tests used:
# [1] = test system: STZ-induced diabetic C57BL/6 mice; assay: Multiple low dose streptozotocin (STZ)-induced murine model of Diabetes, efficacy of D3 peptide; format: in vivo, male C57BL/6 mice; details: for mortality / survival during the course of the study: experiment 1, to day 36, FIG. 15
# Procedure: Peptide treatment also delayed the onset of Diabetes (mean blood glucose levels≧300 mg/dL) by approximately 14 days, and reduced peak BG levels by 40% (p<0.01) in treated animals. This naturally occurring peptide may represent a safer alternative to small molecule kinase inhibitors for the control of IDDM and associated complications.
# Streptozotocin (Streptozocin, STZ, Zanosar) is a naturally occurring glucosamine-nitrosourea compound that is toxic to insulin producing beta cells in the pancreas. This alkylating agent bears enough similarity to the molecular structure of glucose to be readily transported into beta cells by the highly abundant glucose GLU2 glucose transporter protein. Once inside the cell STZ causes damage to the DNA, resulting in a loss of cellular function.
# Twenty five male C57BL/6 mice aged approximately 6 weeks were randomized into 3 groups of 10, 10 and 5 animals. Beginning on day −6, non-fasting blood glucose (BG) levels for all animals were determined twice weekly using an Ascencia Contour blood glucose reader (Beyer). […] Groups 1 and 3 were intraperitoneally administered 200 μl sterile water alone. Injections continued in a similar fashion every 3 days for the duration of the experiment. Beginning on day 0, Groups 2 and 3 also received 50 mg/kg of STZ in 200 μl of sterile water via the intraperitoneal route for 5 consecutive days. Group 1 animals received a mock intraperitoneal injection of 200 μl of sterile water during the same period (see Table 17). Animals were allowed access to food and water ad libitum and this treatment schedule was followed until day 36.
# In experiment 1, animals were fed normal mouse chow for the duration of the experiment and a fresh vial of STZ was used. Blood glucose measurements for each individual animal were recorded twice weekly for the duration of the experiment. The blood glucose levels in the non diabetic control animals remained stable at approximately 150 mg/dl. However, immediately following the administration of STZ to the two experimental groups, blood glucose levels increased steadily over time and reached a maximum at approximately day 15. No difference in blood glucose levels were observed between D3 treated and untreated STZ-induced animals.
# For the duration of the experiment, the mean blood glucose level of normal control animals was approximately 150 mg/dl. For the purposes of this study, a blood glucose reading in STZ-induced animals more than 2-fold higher than normal (i.e. ≧300 mg/dl) was considered to indicate a diabetic animal. Using this criterion, the incidence and time to onset of diabetes in the treated and untreated STZ groups was determined. […] For both STZ groups, the onset of Diabetes began as early as day 4 post STZ administration. All of the untreated STZ animals were classed as diabetic by day 10.
# In experiment 2, animals were fed a high carbohydrate diet (˜50% sucrose) for the duration of the experiment. An older stock vial of STZ was used. Blood glucose measurements for each individual animal were recorded twice weekly for the duration of the experiment. As expected, the blood glucose levels in the non diabetic control animals remained below 150 mg/dl. […] This trend was maintained for the entire duration of the experiment.
# For the duration of the experiment, the mean blood glucose level of normal control animals was approximately 150 mg/dl. For the purposes of this study, a blood glucose reading in STZ-induced animals more than 2-fold higher than normal (i.e. ≧300 mg/dl) was considered to indicate a diabetic animal. Using this criterion, the incidence and time to onset of Diabetes in the treated and untreated STZ groups was determined. […] For the untreated STZ group, Diabetes onset began as early as day 8 post STZ administration, and 100% of animals were diabetic by day 18. […] By day 36 only 70% of animals in the D3 treated group were classified as diabetic. […]
# [2] = test system: 12 Kinases (kinases involved in insulin receptor signaling pathways); assay: NovaScreen ProfilerPro kinase panel / screen of 59 receptors and enzymes at 1 μM; format: biochemical; details: D3 peptide 1 μM, preliminary results
# Procedure: (§1) Kinase assays were performed using the ProfilerPro kinase panel kit available from NovaScreen and were validated using the KinaseProfiler enzyme panel available from Millipore.
# [3] = target: kinases (Homo sapiens, UniProt P15056, V600E); assay: Invitrogen SelectScreen biochemical kinase profiling, Z'-LYTE assay; details: kinase BRAF V599E
# Sequence of kinases (P15056 whole entry V600E): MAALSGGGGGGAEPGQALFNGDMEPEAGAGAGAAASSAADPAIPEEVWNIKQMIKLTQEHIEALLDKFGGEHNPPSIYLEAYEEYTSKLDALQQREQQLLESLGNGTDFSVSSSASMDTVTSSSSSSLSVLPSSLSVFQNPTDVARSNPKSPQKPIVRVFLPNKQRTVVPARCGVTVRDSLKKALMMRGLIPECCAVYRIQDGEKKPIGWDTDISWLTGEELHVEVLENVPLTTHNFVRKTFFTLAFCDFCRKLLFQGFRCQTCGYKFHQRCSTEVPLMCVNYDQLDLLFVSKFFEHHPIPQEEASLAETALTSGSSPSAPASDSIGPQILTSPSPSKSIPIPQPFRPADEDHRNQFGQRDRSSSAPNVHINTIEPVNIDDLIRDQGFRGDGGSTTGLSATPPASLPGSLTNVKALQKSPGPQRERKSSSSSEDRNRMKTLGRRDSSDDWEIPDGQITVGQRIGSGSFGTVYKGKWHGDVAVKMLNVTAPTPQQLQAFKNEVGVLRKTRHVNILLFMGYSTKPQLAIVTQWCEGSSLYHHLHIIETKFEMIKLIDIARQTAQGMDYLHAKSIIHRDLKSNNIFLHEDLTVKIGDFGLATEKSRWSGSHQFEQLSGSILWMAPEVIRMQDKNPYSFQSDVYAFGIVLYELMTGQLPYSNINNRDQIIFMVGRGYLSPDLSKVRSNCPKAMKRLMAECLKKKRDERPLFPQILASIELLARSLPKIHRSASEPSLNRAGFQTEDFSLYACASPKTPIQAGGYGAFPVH
# Excerpt: The Z′-LYTE® biochemical assay employs a fluorescence-based, coupled-enzyme format and is based on the differential sensitivity of phosphorylated and non-phosphorylated peptides to proteolytic cleavage. The peptide substrate is labeled with two fluorophores—one at each end—that make up a FRET pair. In the primary reaction, the kinase transfers the gamma-phosphate of ATP to a single tyrosine, serine or threonine residue in a synthetic FRET-peptide. In the secondary reaction, a site-specific protease recognizes and cleaves non-phosphorylated FRET-peptides. Phosphorylation of FRET-peptides suppresses cleavage by the Development Reagent. Cleavage disrupts FRET between the donor (i.e., coumarin) and acceptor (i.e., fluorescein) fluorophores on the FRET-peptide, whereas uncleaved, phosphorylated FRET-peptides maintain FRET.
# Both cleaved and uncleaved FRET-peptides contribute to the fluorescence signals and therefore to the Emission Ratio. The extent of phosphorylation of the FRET-peptide can be calculated from the Emission Ratio.
# Test Compounds are screened in 1% DMSO (final) in the well. […] All ATP Solutions are diluted to a 4× working concentration in Kinase Buffer (50 mM HEPES pH 7.5, 0.01% BRIJ-35, 10 mM MgCl2, 1 mM EGTA). ATP Km apparent is previously determined using a Z′-LYTE® assay.
# This control yields 100% cleaved peptide in the Development Reaction. […]
# [4] = test system: 12 Kinases (kinases involved in insulin receptor signaling pathways); assay: Millipore KinaseProfiler enzyme panel; format: biochemical; details: D3 peptide 0.1 uM and 1 uM, same 12 kinases
# Procedure: as §1
# [5] = experiment 1, normal mouse chow, fresh vial of STZ
# [6] = experiment 2, high carbohydrate diet
sequence,measurement,setting,value
"SGRPPMIVWFNRPFLIAVSHTHGQTILFMAKVINPVGA [D3 peptide, SGRPPMIVWFNRPFLIAVSHTHGQTILFMAKVINPVGA]",reduction of peak BG levels,"[1]; 36-day prophylactic study, STZ-induced male C57BL/6 mice, 1 mg/kg every 3 days, p<0.01",40%
same,delay of the onset of Diabetes (mean blood glucose levels≧300 mg/dL),"[1]; 36-day prophylactic study, STZ-induced male C57BL/6 mice, 1 mg/kg of D3 peptide every 3 days",approximately 14 days
same,time to onset or rate of disease compared to untreated diabetic controls,"[1]; FIG. 14, STZ treated animals (experiment 1)",No significant differences
same,"blood glucose levels, D3 treated versus untreated STZ-induced animals",[1]; [5],No difference
same,"first signs of Diabetes (blood glucose ≧300 mg/dl), day post STZ administration",[1]; [5],4 days
same,rate of disease progression (slope of the graph) versus untreated STZ group,[1]; [5],essentially similar
same,time to establish Diabetes in 100% of animals,[1]; [5],15 days
same,mortality / survival during the course of the study,[1],increases survival
same,mortality / survival during the course of the study,[1]; listed as D3,no mortality was observed
same,animals classified as diabetic by day 36,[1]; [6],70%
same,deaths from diabetic complications or toxic events related to peptide or STZ treatment,[1]; [6],No animals succumbed to diabetic complications or experienced any toxic events
same,delay of first signs of diabetes versus untreated animals,[1]; [6],four
same,rate of disease progression (slope of the graph),[1]; [6],much less pronounced
same,"mean blood glucose levels, D3 treated versus untreated STZ-induced animals","[1]; experiment 2, high carbohydrate diet (~50% sucrose), older stock vial of STZ, 36 days, FIG. 16",higher than those observed in diabetic animals treated with D3 peptide; also recorded: marked reduction
same,day on which significant differences (p≦0.05) in mean blood glucose versus untreated diabetic animals were first observed,"[1]; experiment 2, high carbohydrate diet, D3 peptide every 3 days",10 days
same,inhibition of kinases of the panel,[2],specific inhibition activities to 7 kinases
same,% Inhibition mean,[3],99.79%
same,inhibition of kinases of the panel (confirmation),[4],specific inhibition activity on 4 out of 7 kinases
